From paper PMC10882719 (Frontiers in Neuroscience, 2024)
Where two headings read alike, the source gives them in different places.

Assays:
Format in all cases: cell-based
168 GPCRs [1] = molecular target: T1, 168 GPCRs (Homo sapiens, UniProt O00574)
T1 construct: host or cells: PathHunter cell lines

168 GPCRs [2] = molecular target: T2, 168 GPCRs (Homo sapiens, UniProt O95838); settings: GLP2R
T2 construct: host or cells: PathHunter cell lines
T2 sequence (O95838 1-553): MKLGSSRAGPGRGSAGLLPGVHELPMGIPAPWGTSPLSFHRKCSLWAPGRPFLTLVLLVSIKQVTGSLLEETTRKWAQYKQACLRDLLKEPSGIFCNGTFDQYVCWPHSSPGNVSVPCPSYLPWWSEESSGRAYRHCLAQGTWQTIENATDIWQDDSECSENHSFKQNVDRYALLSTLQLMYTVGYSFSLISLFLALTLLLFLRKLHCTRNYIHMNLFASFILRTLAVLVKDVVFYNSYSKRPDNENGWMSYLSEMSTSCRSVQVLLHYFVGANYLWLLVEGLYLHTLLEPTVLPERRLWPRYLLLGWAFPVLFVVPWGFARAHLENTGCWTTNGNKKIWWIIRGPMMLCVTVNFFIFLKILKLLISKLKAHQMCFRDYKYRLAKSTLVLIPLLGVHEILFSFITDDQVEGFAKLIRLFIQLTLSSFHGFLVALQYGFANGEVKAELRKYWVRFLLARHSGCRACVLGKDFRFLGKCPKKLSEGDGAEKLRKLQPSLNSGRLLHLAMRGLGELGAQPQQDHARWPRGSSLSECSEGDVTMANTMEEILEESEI

168 GPCRs [3] = molecular target: T3, 168 GPCRs (Homo sapiens, UniProt P25116); settings: F2R
T3 construct: host or cells: PathHunter cell lines
T3 sequence (P25116 22-425): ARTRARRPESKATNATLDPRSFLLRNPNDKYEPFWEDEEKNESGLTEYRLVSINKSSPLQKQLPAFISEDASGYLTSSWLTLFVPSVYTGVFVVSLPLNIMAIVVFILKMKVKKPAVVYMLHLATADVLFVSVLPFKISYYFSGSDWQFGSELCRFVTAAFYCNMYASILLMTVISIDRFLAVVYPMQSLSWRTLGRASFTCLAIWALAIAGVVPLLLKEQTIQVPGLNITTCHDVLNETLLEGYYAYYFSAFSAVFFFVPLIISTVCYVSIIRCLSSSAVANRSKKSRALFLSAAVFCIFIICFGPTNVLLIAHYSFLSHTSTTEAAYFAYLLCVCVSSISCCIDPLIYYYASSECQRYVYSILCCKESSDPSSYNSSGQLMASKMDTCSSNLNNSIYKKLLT

168 GPCRs [4] = molecular target: T4, 168 GPCRs (Homo sapiens, UniProt P30989); settings: NTSR1
T4 construct: host or cells: PathHunter cell lines
T4 sequence (P30989 whole entry): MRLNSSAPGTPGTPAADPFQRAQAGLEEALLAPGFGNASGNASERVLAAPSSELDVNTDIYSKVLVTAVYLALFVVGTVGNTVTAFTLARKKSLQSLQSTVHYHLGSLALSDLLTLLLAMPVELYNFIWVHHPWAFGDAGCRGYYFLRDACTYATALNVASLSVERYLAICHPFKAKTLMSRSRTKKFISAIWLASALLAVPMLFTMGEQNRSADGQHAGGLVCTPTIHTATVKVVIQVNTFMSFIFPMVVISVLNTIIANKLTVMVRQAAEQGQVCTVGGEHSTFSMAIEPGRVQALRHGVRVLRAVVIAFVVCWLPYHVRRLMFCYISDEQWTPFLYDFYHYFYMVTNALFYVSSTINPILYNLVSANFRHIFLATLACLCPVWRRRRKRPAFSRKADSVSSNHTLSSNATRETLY

168 GPCRs [5] = molecular target: T5, 168 GPCRs (Homo sapiens, UniProt P32245); settings: MC4R
T5 construct: host or cells: PathHunter cell lines
T5 sequence (P32245 whole entry): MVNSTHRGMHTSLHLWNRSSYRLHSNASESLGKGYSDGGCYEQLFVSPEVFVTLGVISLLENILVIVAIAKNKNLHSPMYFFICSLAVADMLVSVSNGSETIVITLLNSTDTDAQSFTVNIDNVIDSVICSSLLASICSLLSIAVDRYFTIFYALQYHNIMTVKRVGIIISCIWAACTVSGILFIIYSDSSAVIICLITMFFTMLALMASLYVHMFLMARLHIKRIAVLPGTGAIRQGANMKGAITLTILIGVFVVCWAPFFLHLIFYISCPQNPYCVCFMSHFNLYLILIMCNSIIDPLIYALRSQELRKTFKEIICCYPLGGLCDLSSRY

168 GPCRs [6] = molecular target: T6, 168 GPCRs (Homo sapiens, UniProt P41143); settings: OPRD1
T6 construct: host or cells: PathHunter cell lines
T6 sequence (P41143 whole entry): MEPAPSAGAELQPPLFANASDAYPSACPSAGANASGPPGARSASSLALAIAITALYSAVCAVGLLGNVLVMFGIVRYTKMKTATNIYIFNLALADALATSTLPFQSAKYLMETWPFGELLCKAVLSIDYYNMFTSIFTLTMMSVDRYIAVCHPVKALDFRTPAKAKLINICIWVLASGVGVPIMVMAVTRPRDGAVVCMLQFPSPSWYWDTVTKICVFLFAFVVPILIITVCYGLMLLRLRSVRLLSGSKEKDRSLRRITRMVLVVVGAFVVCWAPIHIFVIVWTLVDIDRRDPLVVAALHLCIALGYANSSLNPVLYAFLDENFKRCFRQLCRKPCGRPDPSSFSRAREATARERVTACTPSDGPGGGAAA

168 GPCRs [7] = molecular target: T7, 168 GPCRs (Homo sapiens, UniProt P50391); settings: PPYR1
T7 construct: host or cells: PathHunter cell lines
T7 sequence (P50391 whole entry): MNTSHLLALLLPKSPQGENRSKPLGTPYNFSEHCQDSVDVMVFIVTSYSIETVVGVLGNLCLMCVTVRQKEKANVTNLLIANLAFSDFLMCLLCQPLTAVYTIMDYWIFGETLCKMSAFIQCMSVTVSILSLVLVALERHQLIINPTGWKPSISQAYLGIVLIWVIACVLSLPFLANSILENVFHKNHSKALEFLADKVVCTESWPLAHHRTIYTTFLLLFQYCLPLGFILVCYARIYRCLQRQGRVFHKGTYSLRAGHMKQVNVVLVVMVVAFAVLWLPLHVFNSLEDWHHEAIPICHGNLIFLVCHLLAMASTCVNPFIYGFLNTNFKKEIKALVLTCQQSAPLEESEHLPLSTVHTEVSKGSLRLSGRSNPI

168 GPCRs [8] = molecular target: T8, 168 GPCRs (Homo sapiens, UniProt Q16581)
T8 construct: host or cells: PathHunter cell lines
T8 sequence (Q16581 1-482): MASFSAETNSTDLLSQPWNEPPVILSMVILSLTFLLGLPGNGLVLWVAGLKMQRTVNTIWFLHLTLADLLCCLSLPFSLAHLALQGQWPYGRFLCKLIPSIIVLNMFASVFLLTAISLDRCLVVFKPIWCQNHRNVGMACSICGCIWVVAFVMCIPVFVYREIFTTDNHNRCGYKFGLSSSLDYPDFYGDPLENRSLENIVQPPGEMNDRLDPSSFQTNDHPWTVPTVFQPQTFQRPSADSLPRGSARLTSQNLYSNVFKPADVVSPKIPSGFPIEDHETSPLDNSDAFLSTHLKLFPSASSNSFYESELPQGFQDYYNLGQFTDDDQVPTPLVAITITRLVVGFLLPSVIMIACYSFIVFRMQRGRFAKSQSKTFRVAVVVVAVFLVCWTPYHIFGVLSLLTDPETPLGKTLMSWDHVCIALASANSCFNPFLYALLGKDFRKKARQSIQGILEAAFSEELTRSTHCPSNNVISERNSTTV

168 GPCRs [9] = molecular target: T9, 168 GPCRs (Homo sapiens, UniProt Q9H3N8)
T9 construct: host or cells: PathHunter cell lines
T9 sequence (Q9H3N8 whole entry): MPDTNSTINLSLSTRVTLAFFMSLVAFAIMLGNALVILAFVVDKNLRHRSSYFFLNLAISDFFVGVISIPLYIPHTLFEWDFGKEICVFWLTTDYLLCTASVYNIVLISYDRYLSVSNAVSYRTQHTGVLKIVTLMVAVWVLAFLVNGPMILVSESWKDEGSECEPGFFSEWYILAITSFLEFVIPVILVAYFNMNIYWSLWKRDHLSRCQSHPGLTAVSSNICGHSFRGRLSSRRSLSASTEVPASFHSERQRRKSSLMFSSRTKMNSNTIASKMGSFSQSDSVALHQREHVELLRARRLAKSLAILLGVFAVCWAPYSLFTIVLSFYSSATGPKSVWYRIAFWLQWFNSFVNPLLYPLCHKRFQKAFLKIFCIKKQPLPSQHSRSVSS

T1 sequence (O00574 whole entry): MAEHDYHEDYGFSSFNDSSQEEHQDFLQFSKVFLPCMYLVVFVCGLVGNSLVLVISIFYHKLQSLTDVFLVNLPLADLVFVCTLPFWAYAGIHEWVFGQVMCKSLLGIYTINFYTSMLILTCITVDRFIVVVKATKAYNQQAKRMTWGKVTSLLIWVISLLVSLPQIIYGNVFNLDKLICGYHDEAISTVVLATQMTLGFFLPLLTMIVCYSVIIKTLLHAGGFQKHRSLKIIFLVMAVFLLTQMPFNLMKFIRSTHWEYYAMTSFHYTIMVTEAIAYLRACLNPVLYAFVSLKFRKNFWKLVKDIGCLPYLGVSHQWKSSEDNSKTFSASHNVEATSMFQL

## CNC(C)Cc1ccc2c(c1)OCO2 (stereo not drawn) [MDMA, 3,4-Methylenedioxy methamphetamine, reference compound]
168 GPCRs [1]; CXCR6, 1 uM
  % Agonist Activity: 14.7%
  % Antagonist Activity: 20.9%
168 GPCRs [1]; CXCR6, 10 uM
  % Agonist Activity: 3.8%
  % Antagonist Activity: 5.2%
168 GPCRs [2]; 1 uM
  % Agonist Activity: 0%
  % Antagonist Activity: 3.4%
168 GPCRs [2]; 10 uM
  % Agonist Activity: -5%
  % Antagonist Activity: 1.1%
168 GPCRs [3]; 1 uM
  % Agonist Activity: -0.7%
  % Antagonist Activity: 1.2%
168 GPCRs [3]; 10 uM
  % Agonist Activity: -1.2%
  % Antagonist Activity: 5.9%
168 GPCRs [4]; Conc 1 uM
  % Agonist Activity: -0.8%
  % Antagonist Activity: 8.7%
168 GPCRs [4]; Conc 10 uM
  % Agonist Activity: 1.2%
  % Antagonist Activity: 0.5%
168 GPCRs [5]; 1 uM
  % Agonist Activity: 2.3%
  % Antagonist Activity: -14.5%
168 GPCRs [5]; 10 uM
  % Agonist Activity: 0.7%
  % Antagonist Activity: -11.7%
168 GPCRs [6]; Conc 1 uM
  % Agonist Activity: -0.7%
  % Antagonist Activity: -15.5%
168 GPCRs [6]; Conc 10 uM
  % Agonist Activity: -1.1%
  % Antagonist Activity: -17.6%
168 GPCRs [7]; Conc 1 uM
  % Agonist Activity: 0.3%
  % Antagonist Activity: 5.9%
168 GPCRs [7]; Conc 10 uM
  % Agonist Activity: 0.9%
  % Antagonist Activity: 6.9%
168 GPCRs [8]; C3AR1, 1 uM
  % Agonist Activity: 0.2%
  % Antagonist Activity: 12.9%
168 GPCRs [8]; C3AR1, 10 uM
  % Agonist Activity: 0.2%
  % Antagonist Activity: 9.8%
168 GPCRs [9]; HRH4, 1 uM
  % Agonist Activity: 1.9%
  % Antagonist Activity: 14.5%
168 GPCRs [9]; HRH4, 10 uM
  % Agonist Activity: 3.1%
  % Antagonist Activity: 14.5%

## CNC(C)C(=O)c1ccc2c(c1)OCO2 (stereo not drawn) [methylone]
168 GPCRs [1]; CXCR6, 1 uM
  % Agonist Activity: 0.3%
  % Antagonist Activity: 27.2%
168 GPCRs [1]; CXCR6, 10 uM
  % Agonist Activity: 0.3%
  % Antagonist Activity: 12.6%
168 GPCRs [2]; 1 uM
  % Agonist Activity: -1.5%
  % Antagonist Activity: 5.4%
168 GPCRs [2]; 10 uM
  % Agonist Activity: -1%
  % Antagonist Activity: 5.4%
168 GPCRs [3]; 1 uM
  % Agonist Activity: -2.5%
  % Antagonist Activity: -11.6%
168 GPCRs [3]; 10 uM
  % Agonist Activity: 0.2%
  % Antagonist Activity: -11.4%
168 GPCRs [4]; Conc 1 uM
  % Agonist Activity: -4.7%
  % Antagonist Activity: -0.7%
168 GPCRs [4]; Conc 10 uM
  % Agonist Activity: -3.5%
  % Antagonist Activity: -1.7%
168 GPCRs [5]; 1 uM
  % Agonist Activity: -1.4%
  % Antagonist Activity: -5.2%
168 GPCRs [5]; 10 uM
  % Agonist Activity: -1.1%
  % Antagonist Activity: -14%
168 GPCRs [6]; Conc 1 uM
  % Agonist Activity: -2%
  % Antagonist Activity: -2.7%
168 GPCRs [6]; Conc 10 uM
  % Agonist Activity: -1.5%
  % Antagonist Activity: 3.5%
168 GPCRs [7]; Conc 1 uM
  % Agonist Activity: -1.7%
  % Antagonist Activity: 9.5%
168 GPCRs [7]; Conc 10 uM
  % Agonist Activity: -1.2%
  % Antagonist Activity: 6.5%
168 GPCRs [8]; C3AR1, 1 uM
  % Agonist Activity: -0.1%
  % Antagonist Activity: 2.5%
168 GPCRs [8]; C3AR1, 10 uM
  % Agonist Activity: 0%
  % Antagonist Activity: 0.3%
168 GPCRs [9]; HRH4, 1 uM
  % Agonist Activity: 8.6%
  % Antagonist Activity: -11.6%
168 GPCRs [9]; HRH4, 10 uM
  % Agonist Activity: 9%
  % Antagonist Activity: -14%
